Source: patent publication EP4144350B1, “TREATMENT OR PREVENTION OF VASCULAR MALFORMATION” (Universitätsmedizin Greifswald, priority 2021, dated 2023)

What was measured:
CCM3^+/+ CI-huVECs = test: CyQuant cell proliferation assay combined with mutant allele frequencies, co-culture (wild-type cells); type: cell-based, human; conditions: six days
Method: Clonally expanded CI-huVEC lines with biallelic loss-of-function variants in the first coding exon of CCM3 have been described before or were established according to a published CRISPR/Cas9 genome editing protocol. Blood outgrowth endothelial cells (BOECs) were cultured in EGM-2 medium (Lonza, Basel, Switzerland) supplemented with 18 % FCS. With the approval of the local ethics committee (University Medicine Greifswald, Germany; No.: BB 047/14a), CCM1^-/- BOECs had been established previously from CCM1^+/- BOECs of a CCM1 mutation carrier with CRISPR/Cas9 genome editing. Mutant and wild-type ECs were co-cultured in 96-well plates under standard culture conditions with the indicated mutant-to-wild-type ratios. 2500 cells were seeded per well. The proliferation rate of mutant and wild-type ECs in monoculture was quantified with the CyQuant® Cell Proliferation Assay Kit (C7026, Thermo Fisher Scientific). To discriminate the proliferation rates of CCM3^+/+ and CCM3^-/- CI-huVEC in co-culture, the CyQuant® Cell Proliferation Assay results were combined with mutant allele frequencies that had been determined by amplicon deep sequencing. To analyse their sensitivity to apoptosis, mutant and wild-type ECs were seeded in 96-well plates with 15.000 cells per well, and treated with staurosporine ([…], Sigma-Aldrich, St. Louis, MO, USA) 24 h later. […]

human tumour cell lines = conditions: cited from earlier work
CCM3^-/- CI-huVECs [1] = test: Targeted RNA sequencing (apoptosis and cell death panel); type: cell-based, human; conditions: 10 µM, 24 h
Description: RNA was extracted using the PeqGold TriFast reagent (Peqlab-VWR, Radnor, PA, USA) and purified using the Direct-zol RNA MiniPrep Plus Kit (Zymo Research, Irvine, CA, USA). A Qubit 4.0 (Thermo Fisher Scientific) and the Qubit RNA BR Assay Kit (Q10211, Thermo Fisher Scientific) were used to measure RNA concentrations. RNA sample integrity was controlled on a 2100 Bioanalyzer using the RNA 6000 Nano Kit (Agilent, Santa Clara, CA, USA). A QIAseq Targeted Human Apoptosis and Cell Death RNA Panel (RHS-002Z, QIAGEN, Hilden, Germany) was used to prepare RNA sequencing libraries according to the manufacturer's instructions. After quality control with the High Sensitivity DNA Kit on a 2100 Bioanalyzer instrument (Agilent), the pooled libraries were sequenced on a MiSeq (Illumina) with 1x151 cycles. Differential gene expression of RNA sequencing data was carried out using the QIAseq Targeted RNA Primary and Secondary Analysis Tool (QIAGEN).

CCM3^-/- CI-huVECs [2] = test: Cell cycle analysis by flow cytometry; type: cell-based, human; conditions: 10 µM, 72 h; DMSO 75.9 %
Method: Plating efficiencies were determined as follows: CCM3^+/+ and CCM3^-/- CI-huVEC were seeded in 6-well-plates with either 100 or 250 cells per well. Colonies fixed and stained after eight days with a solution of glutaraldehyde (G6257, Sigma-Aldrich, final concentration 6 %) and crystal violet (HT901, Sigma-Aldrich, final concentration 0.5 %). The plating efficiency was defined as the ratio between the number of colonies and the number of plated cells. A cell cycle analysis kit (MAK344, Sigma-Aldrich) was used to determine cell cycle profiles by flowcytometry (LSRII Flow Cytometer System, BD Biosciences, San Jose, CA, USA). One day after plating, cells were synchronised for 24 h with ECGM supplemented with 0.1 % FCS. Prior to FACS analysis, cells were incubated with ECGM + 10 % FCS for another 24 h or treated with 10 µM NSC59984 for 72 h. Data were analysed with FlowJo v10.7.1 (BD Biosciences).

CCM3^-/- BMECs = test: hiPSC-derived BMEC co-culture, fluorescent imaging of clonal expansion; type: cell-based, human; conditions: 10 µM for six days, released, another six days under standard conditions
Method: Fluorescently tagged human induced pluripotent stem cells (Coriell Institute, Camden, NJ, USA) were maintained at 37 °C and 5 % CO2 in Essential 8 Flex medium (Thermo Fisher Scientific, Waltham, MA, USA) on plates coated with growth factor reduced matrigel (Corning Inc., Corning, NY, USA). Cells were passaged with 0.5 mM EDTA (Thermo Fisher Scientific). The following endogenously tagged cell lines as part of the Allen Cell Collection (Coriell Institute) were used: AICS-0036-006:WTC-mEGFP-Safe harbor locus (AAVS1)-cl6 and AICS-0054-091:WTC-mTagRFPT-CAAX-Safe harbor locus (AAVS1)-cl91.
CCM3^+/+ AICS-0054 hiPSCs, CCM3^+/+ and CCM3^-/- AICS-0036 hiPSCS were differentiated into human brain microvacular endothelial-like cells (hBMECs). Briefly, 158,000 cells were seeded in Essential 8 Flex medium containing 10 µM Y-27632 on growth factor reduced Matrigel-coated 6-well plates. After 24 h, differentiation was initiated by substitution of Essential 8 Flex with Essential 6 medium (Thermo Fisher Scientific). Medium was changed daily for 4 days. […] The ratio of EGFP-tagged AICS-0036 cells compared to all cells was determined using the ImageJ software. […]

In the case of `CN1CCN(C(=O)/C=C/c2ccc([N+](=O)[O-])o2)CC1` [NSC59984, (E)-1-(4-methylpiperazin-1-yl)-3-(5-nitrofuran-2yl)prop-2-en-1-one], the “Proliferation rate of wild-type ECs” value (CCM3^+/+ CI-huVECs; 10 µM) is given as 295%, the “Proliferation rate of wild-type ECs” value (CCM3^+/+ CI-huVECs; starting value of the decrease, concentration not printed (by parallel 1 µM)) is given as 761% and the “Cell growth of tumour cell lines” value (human tumour cell lines) is given as “reduce cell growth in various human tumour cell lines”. The “Genotoxic effects on normal cells” value (human tumour cell lines) was “minimal genotoxic effects on normal cells”, the “Expression of CDKN1A (p21), FC (fold change NSC59984 vs. DMSO treatment)” value (CCM3^-/- CI-huVECs [1]) was 2.33 and the “Expression of GADD45A, FC (fold change NSC59984 vs. DMSO treatment)” value (CCM3^-/- CI-huVECs [1]) was 2.11. The “Expression of apoptosis-related p53 target genes BBC3 (PUMA) or PMAIP1 (Noxa)” value (CCM3^-/- CI-huVECs [1]) was “unaffected”, the “Cells in G0/G1 (G0/G1 arrest)” value (CCM3^-/- CI-huVECs [2]) was 87.7% and the “Clonal expansion of CCM3^-/- BMECs in co-culture” value (CCM3^-/- BMECs) was “blocked the clonal expansion of CCM3^-/- BMECs in co-culture”.
